Assay results reported in PubChem BioAssay (NCI).
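Compound exposure: 48 hours, 5 concentrations, 96-well plates. The concentration for full growth arrest is given as TGI.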

Key:
Assay in all cases: NCI-60 cell line screen, 48 h
[1] = tested on: 786-0 renal
[2] = tested on: A498 renal
[3] = tested on: A549 NSCLC
[4] = tested on: ACHN renal
[5] = tested on: CAKI-1 renal
[6] = tested on: CCRF-CEM leukemia
[7] = tested on: COLO 205 colon
[8] = tested on: DLD-1 colon
[9] = tested on: DMS 114 small cell lung
[10] = tested on: DMS 273 small cell lung
[11] = tested on: EKVX NSCLC
[12] = tested on: HCC-2998 colon
[13] = tested on: HCT-116 colon
[14] = tested on: HCT-15 colon
[15] = tested on: HL-60(TB) leukemia
[16] = tested on: HOP-18 NSCLC
[17] = tested on: HOP-92 NSCLC
[18] = tested on: HT29 colon
[19] = tested on: IGROV1 ovarian
[20] = tested on: K-562 leukemia
[21] = tested on: KM12 colon
[22] = tested on: KM20L2 colon
[23] = tested on: LOX IMVI melanoma
[24] = tested on: LXFL 529 NSCLC
[25] = tested on: M14 melanoma
[26] = tested on: M19-MEL melanoma
[27] = tested on: MALME-3M melanoma
[28] = tested on: MOLT-4 leukemia
[29] = tested on: NCI-H226 lung
[30] = tested on: NCI-H23 lung
[31] = tested on: NCI-H460 lung
[32] = tested on: NCI-H522 lung
[33] = tested on: OVCAR-3 ovarian
[34] = tested on: OVCAR-4 ovarian
[35] = tested on: OVCAR-5 ovarian
[36] = tested on: OVCAR-8 ovarian
[37] = tested on: RPMI-8226 leukemia
[38] = tested on: RXF 393 renal
[39] = tested on: SF-268 CNS
[40] = tested on: SF-295 CNS
[41] = tested on: SF-539 CNS
[42] = tested on: SK-MEL-2 melanoma
[43] = tested on: SK-MEL-28 melanoma
[44] = tested on: SK-MEL-5 melanoma
[45] = tested on: SK-OV-3 ovarian
[46] = tested on: SN12C renal
[47] = tested on: SNB-19 CNS
[48] = tested on: SNB-75 CNS
[49] = tested on: SNB-78 CNS
[50] = tested on: SR leukemia
[51] = tested on: SW-620 colon
[52] = tested on: TK-10 renal
[53] = tested on: U251 CNS
[54] = tested on: UACC-257 melanoma
[55] = tested on: UACC-62 melanoma
[56] = tested on: UO-31 renal
[57] = tested on: XF 498 CNS
[58] = tested on: HOP-62 NSCLC

Q: What does the source list for Cn1cnc(SC2=C3C(=O)C=C4S[C@H]5C[C@]42c2c(c(O)c4c6c2=[N+]3CCC=6C=N4)N5)c1CC(N)C(=O)O (stereo partly drawn)?
A: TGI [1]: 59.7 µM; TGI [2]: 36.5 µM; TGI [3]: 56.7 µM; TGI [4]: 29.5 µM; TGI [5]: 79.1 µM; TGI [6]: 45.9 µM; TGI [7]: 4.44 µM; TGI [8]: 31.4 µM; TGI [9]: 6.11 µM; TGI [10]: 26 µM; TGI [11]: 32.9 µM; TGI [12]: 29.8 µM; TGI [13]: 13.3 µM; TGI [14]: > 100 µM; TGI [15]: 38.8 µM; TGI [16]: > 100 µM; TGI [17]: 34.5 µM; TGI [18]: 17.1 µM; TGI [19]: 30.2 µM; TGI [20]: 41.3 µM; TGI [21]: 37.8 µM; TGI [22]: 16.6 µM; TGI [23]: 26.1 µM; TGI [24]: 27.1 µM; TGI [25]: 29.1 µM; TGI [26]: 21.5 µM; TGI [27]: 12.4 µM; TGI [28]: 33.7 µM; TGI [29]: 36.5 µM; TGI [30]: 23.8 µM; TGI [31]: > 100 µM; TGI [32]: 16.4 µM; TGI [33]: 14.6 µM; TGI [34]: 31.1 µM; TGI [35]: 28.5 µM; TGI [36]: 27.2 µM; TGI [37]: 55.7 µM; TGI [38]: 43.8 µM; TGI [39]: 25.1 µM; TGI [40]: 29.4 µM; TGI [41]: 31.8 µM; TGI [42]: 28.2 µM; TGI [43]: 31.9 µM; TGI [44]: 26.4 µM; TGI [45]: 52.8 µM; TGI [46]: 10.2 µM; TGI [47]: 32 µM; TGI [48]: 34.1 µM; TGI [49]: 40.9 µM; TGI [50]: 48.8 µM; TGI [51]: 18.5 µM; TGI [52]: > 100 µM; TGI [53]: 31.3 µM; TGI [54]: 29.9 µM; TGI [55]: 29.2 µM; TGI [56]: 37.6 µM; TGI [57]: 28.7 µM

Q: Which TGI [1] does the source give for CN(C)CCNC(=O)c1c2ccccc2cc2ccccc12 here?
A: > 100 µM

Q: What about the TGI [2] of the same compound?
A: > 100 µM

Q: And the TGI [3]?
A: > 100 µM

Q: What about the TGI [4] of the same compound?
A: > 100 µM

Q: What about the TGI [6] of the same compound?
A: > 100 µM

Q: What about the TGI [7] of the same compound?
A: 48.3 µM

Q: And the TGI [8]?
A: > 100 µM

Q: What about the TGI [9] of the same compound?
A: > 100 µM

Q: What about the TGI [10] of the same compound?
A: > 100 µM

Q: What about the TGI [11] of the same compound?
A: > 100 µM

Q: And the TGI [12]?
A: > 100 µM

Q: And the TGI [13]?
A: > 100 µM

Q: What about the TGI [14] of the same compound?
A: > 100 µM

Q: What about the TGI [15] of the same compound?
A: 88.5 µM

Q: What about the TGI [16] of the same compound?
A: > 100 µM

Q: What about the TGI [58] of the same compound?
A: > 100 µM

Q: And the TGI [17]?
A: > 100 µM

Q: What about the TGI [18] of the same compound?
A: > 100 µM

Q: And the TGI [19]?
A: > 100 µM

Q: What about the TGI [20] of the same compound?
A: 67.1 µM

Q: And the TGI [21]?
A: > 100 µM

Q: What about the TGI [22] of the same compound?
A: > 100 µM

Q: What about the TGI [23] of the same compound?
A: 30.1 µM

Q: What about the TGI [24] of the same compound?
A: 80.8 µM

Q: And the TGI [25]?
A: 30.7 µM

Q: What about the TGI [26] of the same compound?
A: > 100 µM

Q: And the TGI [27]?
A: > 100 µM

Q: And the TGI [28]?
A: 45 µM

Q: And the TGI [29]?
A: 48.5 µM

Q: And the TGI [30]?
A: > 100 µM

Q: And the TGI [31]?
A: > 100 µM

Q: What about the TGI [33] of the same compound?
A: > 100 µM

Q: And the TGI [34]?
A: > 100 µM

Q: And the TGI [35]?
A: > 100 µM

Q: What about the TGI [36] of the same compound?
A: > 100 µM

Q: And the TGI [37]?
A: > 100 µM

Q: What about the TGI [38] of the same compound?
A: 99 µM

Q: What about the TGI [39] of the same compound?
A: > 100 µM

Q: What about the TGI [40] of the same compound?
A: > 100 µM

Q: And the TGI [41]?
A: > 100 µM

Q: And the TGI [42]?
A: 36.8 µM

Q: And the TGI [43]?
A: 64.4 µM

Q: And the TGI [44]?
A: 34.3 µM

Q: What about the TGI [45] of the same compound?
A: > 100 µM

Q: And the TGI [46]?
A: > 100 µM

Q: What about the TGI [47] of the same compound?
A: > 100 µM

Q: What about the TGI [48] of the same compound?
A: > 100 µM

Q: What about the TGI [49] of the same compound?
A: > 100 µM

Q: And the TGI [50]?
A: 26.3 µM

Q: And the TGI [51]?
A: > 100 µM

Q: What about the TGI [52] of the same compound?
A: > 100 µM

Q: And the TGI [53]?
A: > 100 µM

Q: And the TGI [54]?
A: 34.4 µM

Q: And the TGI [55]?
A: 53.4 µM

Q: And the TGI [56]?
A: > 100 µM

Q: What about the TGI [57] of the same compound?
A: 44.8 µM
